Measured values as given in PMC6522524 (Nature Communications, 2019).
Several values for one entry are separate records, joined by “and”; a condition that tells them apart may be missing. Identical values can stand only once. Entries after “also recorded” stand apart in the source; their conditions may differ. Like-named read-outs stand apart in the source and are kept apart here.

Experiments:
[1] = test system: HBV (ayw subtype, genotype D) replicon in HepG2.2.15 cells; assay: microbe, parasite or virus in culture; type: cell-based, Hepatitis B virus; conditions: Hepatitis B virus
[2] = test system: HBV (pHBV1.2× adr) in transfected HepG2 cells; assay: microbe, parasite or virus in culture; type: cell-based, Hepatitis B virus; conditions: Hepatitis B virus, HepG2, 144 h; HBV1.2× adr transfected cells, 6 days; read-out: IC50, HBV DNA secretion
[3] = test system: HBV (pHBV1.2× adr) in transfected HepG2 cells; assay: microbe, parasite or virus in culture; type: cell-based, Hepatitis B virus; conditions: Hepatitis B virus, HepG2, 144 h; HBV1.2× adr transfected cells, 6 days; read-out: IC50, intracellular HBV DNA
[4] = test system: HBV pgRNA/precore RNA in HepG2.2.15 cells; type: cell-based, Hepatitis B virus
Description: Fig. 1 Effect of FDA-approved compounds on HBV replication. a Schematic depiction of the primary screening analysis. HepG2.2.15 cells, which were stably transfected with HBV replicons, were treated with 978 FDA-approved drugs (1 μM) for 3 days. Entecavir (ETV) (1 μM) served as positive control. […] Quantitative RT-PCR was performed after 6 days of incubation. d Effect of the 19 candidates on intracellular HBV capsid assembly. Huh-7 cells were transfected with pCDNA3-Core and exposed after 12 h to the 19 candidates (1 μM) for 36 h. The cells were lysed and assembled HBV core particles were isolated by sucrose step gradient ultracentrifugation, resolved on 1% agarose gels, and subjected to immunoblot analysis with anti-HBV core antibody.
(§1) Quantitative RT-PCR with primers that detect three HBV regions (R1, R2, and R3, Supplementary Table 1) was used to measure HBV transcription. This RT-PCR detects pgRNA and precore RNA (3.5 kB), two HBV surface-encoding RNAs (2.5 kB and 2.1 kB), and HBx-encoding RNA (0.7 kB)[55]. PCR conditions were 95 °C for 10 min initially, then 50 cycles of 95 °C for 30 s, 60 °C for 60 s and 72 °C for 30 s, and finally 1 cycle of 95 °C for 60 s, 55 °C for 30 s and 95 °C for 30 s.
a Schematic depiction of the R1, R2, and R3 regions of the HBV genome that were targeted by
quantitative RT-PCR to quantitate the transcription of pgRNA, two HBV surface RNAs, and HBx RNA.
pGL3/HBV pgRNA promoter or pGL3/HBV sRNA promoter. The data shown in (b – d) represent two

[5] = test system: HBV transcripts in HepG2 cells transfected with pHBV1.2×; assay: HBV transcription in HepG2 cells transfected with pHBV1.2×, quantitative RT-PCR; type: cell-based, Hepatitis B virus
Description: as §1, with “s. […]” for “s.”
a Schematic depiction of the R1, R2, and R3 regions of the HBV genome that were targeted by quantitative RT-PCR to quantitate the transcription of pgRNA, two HBV surface RNAs, and HBx RNA. […]
c Region 3 transcription in ciclopirox-treated (b) HepG2.2.15 cells and (c) HepG2 cells transfected with the pHBV1.2× plasmid. d The promoter analysis of ciclopirox-treated HepG2 cells transfected with pGL3/HBV pgRNA promoter or pGL3/HBV sRNA promoter. The data shown in (b – d) represent two

[6] = molecular target: HBV core protein (pCDNA3-Core, Y118 wild-type) in Huh-7 cells (Hepatitis B virus genotype C, UniProt P0C6H6); assay: cell-based; type: cell-based
[7] = molecular target: T1, Cp149 (truncated HBV core protein) (Hepatitis B virus genotype D subtype ayw, UniProt P03146); assay: Electron microscopy of HBV capsid assembly in vitro; type: biochemical
T1 construct: Cp149 (amino acids 1–149) is a truncated form of the HBV core protein; made in house; host or cells: Escherichia coli
Description: The particles were negatively stained with 2% uranyl acetate. Scale bars = 200 nm and 100 nm. TEM magnifications, ×49,000 and ×75,000.
Five microliters of the solution containing the assembled HBV core particles was negatively stained by incubation on a carbon-coated grid for 1 min, followed by washing with water and staining with 2% uranyl acetate for 1 min. The grids were examined with a Tecnai G2 F30 S-TWIN transmission electron microscope.

[8] = test system: total HBV core protein in Huh-7 cells; type: cell-based, Hepatitis B virus
Description: the indicated times. The cells were lysed and assembled HBV core particles were isolated by sucrose step-gradient ultracentrifugation, resolved on 1 % agarose gels, and subjected to immunoblot analysis with anti-HBV core antibody. Total intracellular HBV core protein was also determined by immunoblot analysis in the cell lysates. Core mRNA levels were measured by quantitative RT-PCR. The data

[9] = test system: HBV (genotype D) in PXB mice; conditions: mouse, in vivo
[10] = test system: HBV (genotype D) in HepG2-NTCP cells; assay: In vitro HBV infection model, HepG2-NTCP cells: secreted HBV DNA
Description: (§2) To isolate the secreted HBV DNA, culture media were collected and centrifuged at 15,000 × g to remove debris. The medium was diluted 1:1 with phosphate-buffered saline (PBS), and 1 M NaOH solution was added to a final concentration of 0.1 M. The mixture was incubated at 37 °C for 1 h. Protein was denatured by adding 2 M Tris-HCl (pH 7.5) solution to a final concentration of 0.2 M and incubating the mixture at 98 °C for 5 min. The protein precipitate was removed by centrifugation at 15,000 × g, and the supernatant was subjected to PCR with an HBV DNA primer and probe set (Supplementary Table 1). […] To isolate intracellular HBV DNA, the cells were lysed on ice with lysis buffer (50 mM Tris-HCl, pH 7.5, 1 mM EDTA, 1% NP40) for 10 min. After removing cell debris and nuclei by centrifugation at 15,000 × g, the supernatant was treated with micrococcal nuclease (0.25 U per μL, M0247, New England Biolabs) at 37 °C for 1 h. The micrococcal nuclease was then inactivated by adding EGTA to a final concentration of 10 mM. Thereafter intracellular HBV DNA was extracted with a G-spin^TM total kit (17046, Intron). The isolated intracellular HBV DNA was subjected to PCR with an HBV DNA primer and probe set (Supplementary Table 1). cccDNA was isolated by the Hirt extraction method[54]. […]

[11] = test system: HBV (genotype D) in Huh-7-NTCP cells; assay: In vitro HBV infection model, Huh-7-NTCP cells: secreted HBV DNA
Description: as §2

[12] = test system: HBV rcDNA in Huh-7-NTCP cells; assay: In vitro HBV infection model, Huh-7-NTCP cells: intracellular HBV rcDNA
Description: as §2

[13] = HepG2.2.15, 144 h, read-out: Relative secreted HBV DNA level (Folds), AVERAGE
[14] = HepG2.2.15, 144 h, read-out: Relative secreted HBV DNA level (Folds), individual samples
[15] = Huh-7, read-out: Relative intensity (Folds), intracellular capsid, AVERAGE
[16] = Huh-7, read-out: Relative intensity (Folds), intracellular capsid, individual samples

Sequence of HBV core protein (pCDNA3-Core, Y118 wild-type) in Huh-7 cells (P0C6H6 whole entry, the tested form may be a part): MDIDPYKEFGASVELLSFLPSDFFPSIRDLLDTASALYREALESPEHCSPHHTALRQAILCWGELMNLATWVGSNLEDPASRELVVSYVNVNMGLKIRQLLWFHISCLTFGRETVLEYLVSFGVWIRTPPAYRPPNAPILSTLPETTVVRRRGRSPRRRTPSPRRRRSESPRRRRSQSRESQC
T1 sequence (P03146 1-149): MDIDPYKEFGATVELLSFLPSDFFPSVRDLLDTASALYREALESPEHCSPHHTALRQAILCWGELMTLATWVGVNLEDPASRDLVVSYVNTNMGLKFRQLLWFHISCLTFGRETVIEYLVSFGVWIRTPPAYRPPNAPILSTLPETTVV

With `Cc1cc(C2CCCCC2)n(O)c(=O)c1` [Ciclopirox, 6-cyclohexyl-1-hydroxy-4-methyl-2(1 H)-pyridone] as the compound, how does the inhibition at 1 µM ([1]; HepG2.2.15, 72 h, read-out: % of inhibition (ETV =100%), initial screening (3days)) read?
The inhibition at 1 µM was 142%.

And the inhibition at 1 µM ([1]; HepG2.2.15, 144 h, read-out: % of inhibition (ETV =100%), confirmation (6days))?
The inhibition at 1 µM was 88.6%.

And the IC50 ([1]; HepG2.2.15, 144 h, read-out: IC50, HBV DNA secretion)?
The IC50 was 880 ± 70 nM.

And the activity at 0.1 µM [1, 13]?
The activity at 0.1 µM was 102%.

What about the activity at 0.2 µM [1, 13] of the same compound?
Its activity at 0.2 µM is 81.1%.

What about the activity at 0.5 µM [1, 13] of the same compound?
The activity at 0.5 µM was 52.1%.

And the activity at 1 µM [1, 13]?
The activity at 1 µM was 51.6%.

And the activity at 2 µM [1, 13]?
The activity at 2 µM was 29.1%.

And the activity at 5 µM [1, 13]?
Its activity at 5 µM is 23.5%.

What about the activity at 10 µM [1, 13] of the same compound?
The activity at 10 µM was 4.49%.

What about the activity at 0.1 µM [1, 14] of the same compound?
Its activity at 0.1 µM is 102%.

And the activity at 0.2 µM [1, 14]?
Its activity at 0.2 µM is 83%.

And the activity at 0.5 µM [1, 14]?
The activity at 0.5 µM was 48.1%.

And the activity at 1 µM [1, 14]?
The activity at 1 µM was 49.9%.

And the activity at 2 µM [1, 14]?
Its activity at 2 µM is 29%.

And the IC50 [2]?
The IC50 was 750 ± 150 nM.

And the IC50 [3]?
The IC50 was 800 ± 180 nM.

What about the “HBV transcripts levels” value [4] of the same compound?
Its value is “no effect”.

And the “HBV transcripts levels” value [5]?
The value was “no effect”.

What about the “intracellular HBV capsid assembly” value [6] of the same compound?
Its value is “inhibited HBV capsid assembly; also recorded: affected intracellular HBV capsid assembly”.

And the activity at 0.1 µM [6, 15]?
The activity at 0.1 µM was 92.1%.

And the activity at 0.5 µM [6, 15]?
The activity at 0.5 µM was 95.1%.

What about the activity at 1 µM [6, 15] of the same compound?
The activity at 1 µM was 82.9%.

What about the activity at 5 µM [6, 15] of the same compound?
The activity at 5 µM was 20.4%.

What about the activity at 10 µM [6, 15] of the same compound?
The activity at 10 µM was 2.39%.

And the activity at 0.1 µM [6, 16]?
Its activity at 0.1 µM is 90%.

What about the activity at 0.5 µM [6, 16] of the same compound?
The activity at 0.5 µM was 92.6%.

And the activity at 5 µM [6, 16]?
The activity at 5 µM was 17.9%.

And the activity at 10 µM [6, 16]?
The activity at 10 µM was 2.39%.

And the “HBV capsid morphology (EM)” value [7]?
The value was “HBV capsid morphology was altered”.

What about the “Total denatured HBV core protein” value ([8]; 36 h) of the same compound?
The value was “not affected”.

And the total core protein ([8]; treatment time increased)?
The total core protein was “decreased”.

And the “Serum HBV DNA, AVERAGE” value [9]?
Its value is 6.24 log copies/mL.

What about the “Serum HBV DNA, individual samples” value [9] of the same compound?
The value was 6.248 log copies/mL and 5.238 log copies/mL and 7.238 log copies/mL.

And the “cccDNA, AVERAGE” value [9]?
Its value is 0.2214 log copies/cell.

What about the “cccDNA, individual samples” value [9] of the same compound?
Its value is 0.22 log copies/cell and 0.29 log copies/cell and 0.16 log copies/cell.

What about the “HBV core protein levels in the liver” value ([9]; po) of the same compound?
The value was “significantly reduced HBV core protein levels in the liver”.

And the HBeAg levels ([9]; po)?
The HBeAg levels was “significantly decreased HBeAg levels”.

What about the “Serum ALT levels” value ([9]; po) of the same compound?
The value was “decreased”.

And the “intrahepatic cccDNA” value ([9]; po)?
The value was “significantly reduced the amount of intrahepatic cccDNA”.

What about the “serum HBV DNA levels” value ([9]; po) of the same compound?
The value was “lowered serum HBV DNA levels significantly”.

And the “serum HBV DNA levels, combined with TDF” value ([9]; po)?
Its value is “these effects were enhanced when it was combined with TDF”.

What about the “secretion of HBV DNA” value [10] of the same compound?
The value was “dropped markedly”.

And the “secretion of HBV DNA” value [11]?
Its value is “dropped markedly”.

What about the “intracellular relaxed circular DNA levels” value [12] of the same compound?
The value was “dropped markedly”.
